The text below walks through data of paper PMC10002984, “Dual PTP1B/TC-PTP Inhibitors: Biological Evaluation of 3-(Hydroxymethyl)cinnoline-4(1H)-Ones” (International Journal of Molecular Sciences, 2023).

Test [1] deals with T1, human recombinant TC-PTP protein (Homo sapiens, UniProt P17706).
T1 construct: purchased Sigma-Aldrich SRP0218
T1 sequence (P17706 1-415): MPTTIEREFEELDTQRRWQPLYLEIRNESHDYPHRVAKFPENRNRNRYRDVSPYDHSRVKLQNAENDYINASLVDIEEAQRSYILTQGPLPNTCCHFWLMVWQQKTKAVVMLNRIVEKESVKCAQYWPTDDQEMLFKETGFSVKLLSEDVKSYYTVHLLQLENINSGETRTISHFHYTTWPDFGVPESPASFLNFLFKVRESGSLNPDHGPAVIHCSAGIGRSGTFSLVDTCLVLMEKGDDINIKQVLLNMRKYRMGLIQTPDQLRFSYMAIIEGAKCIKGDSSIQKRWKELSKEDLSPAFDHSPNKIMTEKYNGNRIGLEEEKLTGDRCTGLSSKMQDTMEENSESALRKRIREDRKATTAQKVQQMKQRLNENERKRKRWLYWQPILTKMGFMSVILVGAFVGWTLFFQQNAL
The test is described as follows: Phosphatase activity assay with DiFMUP, TC-PTP inhibition. The following applies: DiFMUP 35 µM, 80 ng/mL TC-PTP, compounds 0.1–80 μM; M ± SEM (n = 24); read-out: IC50 for the inhibitory effect on TC-PTP activity. Type of test: biochemical. The procedure: The measurement of the activity of the phosphatases PTP1B and TC-PTP and their inhibition was carried out using 6,8-difluoro-4methylumbelliferyl phosphate (DiFMUP), as previously described. The stock solution of recombinant human PTP1B protein (#ab51277, Abcam, Cambridge, UK), at a concentration of 1 µg/µL, was prepared in 25 mM Tris–HCl (pH 7.5), 20% glycerol, 2 mM β-mercaptoethanol, 1 mm EDTA, and 1 mM DTT, and stored at −20 °C. Active human recombinant TC-PTP protein was purchased from Sigma-Aldrich (#SRP0218, Saint Louis, MO, USA) as the aqueous buffer solution at a concentration of 2.9 mg/mL, and aliquots were stored at −80 °C. The fluorogenic substrate DiFMUP (#D6567, Molecular Probes, Thermo Fisher Scientific, Waltham, MA, USA) was dissolved at a concentration of 10 mM in N,N-dimethylformamide and stored in aliquots at −20 °C. The 6,8-difluoro-7-hydroxy-4-methylcoumarin (DiFMU, #D6566, Molecular Probes, Thermo Fisher Scientific, Waltham, MA, USA) was used as a reference fluorescent standard. For the IC50 determination, the assay was carried out in black flat bottom 96-well plates using a reaction volume of 100 µL. The phosphatases (PTP1B or TC-PTP) were preincubated with the tested compounds (0.1–80 µM) in 50 mM HEPES (pH 6.9), 100 mM NaCl, 1 mM EDTA, 2 mM DTT, 0.1 mg/mL BSA for 5 min at 37 °C. The following concentrations of the compounds were studied: 0.1, 0.2, 0.5, 1, 2, 5, 10, 20, 40, and 80 μM. The reactions were initiated by the addition of the fluorogenic substrate DiFMUP and diluted in the assay buffer. Progress curves for hydrolysis reaction were obtained with 25 µM of DiFMUP for 80 ng/mL PTP1B, and 35 µM of DiFMUP for 80 ng/mL TC-PTP. Fluorescence excitation of hydrolyzed DiFMUP and the fluorescent standard DiFMU was monitored at 355 nm and emission was detected at 460 nm for 6–10 min at 30 s intervals in a Fluoroskan Ascent FL microplate reader (Thermo Electron Corporation, Vantaa, Finland). Initial velocities of the reactions were used to calculate the IC50 values using GraphPad Prism.
The data on food intake, body weight, and biochemical parameters in rats, as well as the PCR data, were analyzed using the IBM SPSS Statistics 22 software (“IBM”, Armonk, NY, USA), and the results are presented as mean ± standard error of the mean (M ± SEM). All differences are considered significant at p < 0.05. The calculation of the IC50 values of the studied inhibitors for the initial velocities of enzymatic reactions (PTP1B, TC-PTP) was carried out using the nonlinear regression analysis with GraphPad Prism 8 (“GraphPad Software, Inc.”, Boston, MA, USA). The statistical analysis was carried out using the Wilcoxon test for pairwise comparison and Dunn’s test for multiple comparisons.

The subject of test [2] is Shp1 gene. The test is described as follows: Gene expression in the liver of obese rats (qPCR), Shp1 gene. Type of test: in vivo, rat. Conditions: five-day treatment. The procedure: Further, six groups were formed: control (Con, n = 10), obesity (Ob, n = 10), obese rats with five-day treatment with compounds 1 (Ob + 1, n = 5), 2 (Ob + 2, n = 5), 3 (Ob + 3, n = 10), and 4 (Ob + 4, n = 10). All compounds were administered in DMSO (300 µL) at a daily dose of 7 mg/kg (1 and 2), 8 mg/kg (3), and 10 mg/kg (4) (i.p.), based on the results of the preliminary experiments. The used doses of compounds 1–4, in terms of the number of moles of each compound per kg of animal body weight, were equivalent. Control and obese rats received DMSO in the same volumes (300 µL), instead of the tested compounds. During the five days of the experiment, all animals were transferred to standard food and had free access to food and drinking water. […] The test was carried out on the morning of the next day after the last (fifth) injection of the compounds or DMSO, after a 10 h fast. The rest of the animals (n = 5 in each group) were anesthetized and decapitated on the last day of the experiment. The blood and liver samples were taken to measure blood glucose and hormone levels and gene expression in the liver.
The total RNA was isolated from the liver samples of rats using the “ExtractRNA Reagent” (Evrogen, Moscow, Russia), and the samples containing 1 μg of RNA were transcribed to cDNA using the random oligodeoxynucleotide primers and the “MMLV RT kit” (Evrogen, Russia). The amplification procedure was carried out in the mixture containing 10 ng of reverse transcribed product, 0.4 μM of the forward and reverse primers, and the “qPCRmix-HS SYBR + LowROX kit” (Evrogen, Russia). The amplified signals were detected using the “Applied Biosystems® 7500 Real-Time PCR System” (Life Technologies, Carlsbad, CA, USA, Thermo Fisher Scientific Inc., USA). The primers that were used to assess the expression of genes encoding the phosphatase PTP1B, TC-PTP, and SHP1 and the insulin and leptin receptors are presented in Table 4. The obtained data were calculated with the delta–delta Ct method and expressed as a fold expression, relative to the corresponding control. The expression of the gene encoding 18S RNA was used as an endogenous control.
In general terms: In qPCR the cycle at which signal appears reflects the starting amount.

Usually IC50 stands for the concentration that inhibits the measured activity by half. On to `O=c1c(CO)n[nH]c2ccc(Br)cc12` [Compound 4, 6-Bromo-3-(hydroxymethyl)cinnolin-4(1H)-one], for which, in test [1], the IC50 came out at 26.5 ± 4.66 µM. In addition, in test [2], the “expression of the Shp1 gene in the liver” value is recorded as “did not affect”.

As for `O=c1c(CO)n[nH]c2ccc(Cl)cc12` [Compound 3, 6-Chloro-3-(hydroxymethyl)cinnolin-4(1H)-one], the IC50 in test [1] is 2.98 ± 0.76 µM. Also, the “expression of the Shp1 gene in the liver” value in test [2] is “did not affect”.

As for `O=c1c(CO)n[nH]c2ccccc12` [Compound 1], in test [1], the IC50 was 18.9 ± 2.06 µM. The “expression of the Shp1 gene in the liver” value in test [2] is on record as “increased”.
